The values below come from patent US8952192B2, “Phosphorylated and branched dihydroxy-pentane-dione (DPD) analogs as quorum sensing inhibitors in bacteria” (University of Maryland, College Park, priority 2011, dated 2015).

Type in all cases: cell-based
In experiment [1] the test system is pre-formed P. aeruginosa biofilms (PAO1). As to the kind of experiment: Effects on pre-formed P. aeruginosa biofilms (microfluidic flow cell, COMSTAT, optical density). Here is the method: (§1) The E. coli biofilms were formed using the strain K-12 MG1655 ATCC(47076). P. aeruginosa biofilms were formed using wild type strain PAO1. For both strains, overnight cultures were diluted to an OD600 of 0.25, introduced into the microfluidic channel, and incubated with no flow at 37° C. for 2 h. LB (Luria Bertani) growth medium was then continuously flowed into the device at a rate of 10 μL/hr. As needed, this medium was supplemented with various concentrations of analog or antibiotic at specified times. In studies of biofilm inhibition, after 2 hours of cell incubation, the analog diluted in LB medium is flown into the microfluidic channel for 48 hours at 10 μL/hr. In studies of effects on pre-formed biofilms, LB is introduced over the cells at 10 μL/hr for a period of 36 to 48 hours to yield stable biofilms. Then, the analog or analog-antibiotic combination was introduced for an additional 36 to 48 hours.
(§2) Biofilms were stained in situ for microscopy. They were first treated with a Live/Dead bacterial labeling kit (Invitrogen #L7012) in which two labeling components were mixed in a 1:1 ratio to a final volume of 10 μL. The dye was introduced into the channel at 10 μL/hr, the same flow rate as during biofilm growth. This treatment was then followed by 10 μL/hr of a 100 μg/mL calcofluor (Fluorescence Brightener 28, Sigma #F3543) solution for labeling polysaccharides contained in the biofilm matrix. The dyes are fixed by flowing in 3% paraformaldehyde at the same flow rate.
(§3) Labeled samples are imaged using a confocal microscope (Zeiss LSM710). For unpatterned coverslips, Z-stacks were obtained at 7 points in each microfluidic channel, each stack was comprised of 150 slices. For patterned coverslips used while measuring the optical density of the biofilms, two stacks were obtained in each channel (i.e. one at each pinhole). The image stacks were analyzed using COMSTAT, which provides morphological characteristics. Average biofilm thickness and biomass were averaged over the image stacks obtained at each of these 7 data points in the microfluidic channel. Additionally, surface reconstructions of the biofilms were created using Imaris (Bitplane) to aid in visualization of the resulting structures.
(§4) The data corresponding to the change in optical density of the biofilms were obtained from the photodiodes using the standard methodologies. Data for each channel (the average of the response of the two photodiodes) was normalized with respect to the optical density at 48 hours; this method reflects that as of 48 hours, the biofilms have been grown under identical conditions although their optical density values may not be identical. Additionally, since the optical density data itself fluctuates as the biofilm grows, the data for each curve was fitted using a Churchill model (Churchill et al, 1972), represented by log N=[f1^−1+f2^−1]^−1 (1)

A further experiment deals with E. coli W3110 pCT6. As to the kind of experiment: Trispecies synthetic ecosystem: AI-2 stimulated GFP expression, flow cytometry. As to conditions: trispecies co-culture, flow cytometry after 8 hours; 60.7% without analog. From the text:
(§5) To investigate the effect of the DPD analogs in a mixed bacterial environment, a synthetic ecosystem composed of three different bacterial populations was assembled. Specifically, S. typhimurium MET708, V. harveyi BB170 and E. coli W3110 (pCT6), each luxS^+ (Table 2), and each producing their native AI-2 were co-cultured in the same tubes. By design, each species was selected so that a different reporter probe would indicate the specific bacterium's QS response: S. typhimurium (MET708) expresses β-galactosidase; V. harveyi (BB170) elicits bioluminescience; and E. coli (W331) are engineered to synthesize GFP. In this way, their responses can be differentiated and quantified in response to AI-2.
(§6) The S. typhimurium MET708, V. harveyi BB170 and E. coli W3110 pCT6 were each cultured separately overnight in LM medium supplemented with the appropriate antibiotic. […] The V. harveyi luminescence response was measured after 2.5 hours. The S. typhimurium lacZ (β-galactosidase) activity was measured after 4 hours. The E. coli response was determined after 8 hours, by fixing the cells with 1:1 cold 4% paraformaldehyde and using flow cytometric analysis. Samples were analyzed by flow cytometery (FACS Canto II, BD 394 Biosciences), with 20,000 gated events analyzed per sample.
(In general: Flow cytometry measures light scatter and fluorescence of single cells or particles in a stream.)

For a further experiment, the system named is V. harveyi BB170. As to the kind of experiment: QS response (bioluminescence), trispecies synthetic ecosystem. As to conditions: 40 μM, LM media. As for the experimental part:
The effect of isobutyl-DPD or isopropyl-DPD on QS associated bioluminescence production by V. harveyi was recorded by measuring the light production from reporter strain, V. harveyi BB170. The analogs were added at concentrations of (20 μM or 40 μM) to V. harveyi BB170 which was assayed as previously described.
The S. typhimurium MET708, V. harveyi BB170 and E. coli W3110 pCT6 were each cultured separately overnight in LM medium supplemented with the appropriate antibiotic. V. harveyi BB170, S. typhimurium MET708 and E. coli MDAI-2 were diluted (1:4:8), respectively, into a single 1 ml volume of fresh LM medium without antibiotics. The co-culture was supplemented with either 20 μM or 40 μM analog initially and again after 3 and 5 hours of growth. The V. harveyi luminescence response was measured after 2.5 hours. The S. typhimurium lacZ (β-galactosidase) activity was measured after 4 hours. The E. coli response was determined after 8 hours, by fixing the cells with 1:1 cold 4% paraformaldehyde and using flow cytometric analysis. Samples were analyzed by flow cytometery (FACS Canto II, BD 394 Biosciences), with 20,000 gated events analyzed per sample.

The subject of experiment [2] is pre-formed E. coli biofilms (K-12 MG1655). As to the kind of experiment: Effects on pre-formed E. coli biofilms (microfluidic flow cell, COMSTAT, optical density). Here is the method: as §1, §2, §3, §4
In another experiment the test system is S. typhimurium. As to the kind of experiment: DPD analogs and representative bacterial species affected (Table 1). On the set-up: key: x: DPD Analogs and representative bacterial species affected.
The next experiment concerns S. typhimurium MET708. As to the kind of experiment: Trispecies synthetic ecosystem (S. typhimurium, V. harveyi, E. coli): β-galactosidase activity. As to conditions: trispecies co-culture, lacZ activity after 4 hours.
Text: as §5, §6

Where [3] appears, read: 100 μM isobutyl-DPD combined with gentamicin 5 μg/ml.

For the molecule `O=C(C(=O)C(O)CO)c1ccccc1` (centres unmarked) [Phenyl-DPD, Phenyl DPD], the biofilm reduction entry is reported as “about 40%” in experiment [1] (100 uM phenyl DPD alone); roughly 100% in experiment [1] (gentamicin and 100 uM phenyl DPD combined). The biofilm biomass in experiment [1] (phenyl-DPD 100 μM combined with gentamicin 5 μg/ml, untreated 15 μm^3/μm^2) is listed as less than 2 μm^3/μm^2. For the same molecule, in experiment [1] (phenyl-DPD 100 μM combined with gentamicin 5 μg/ml, untreated 26 μm), the biofilm thickness is listed as 2 μm. Also, the “course of biofilm optical density after 48 h, in words” value in experiment [1] (phenyl-DPD combined with gentamicin, continuous optical density measurement) is reported as “reversed biofilm growth”.
Regarding `CC(C)CC(=O)C(=O)[C@@H](O)CO` [Isobutyl-DPD, isobutyl-DPD], the “QS positive (green, GFP) cells of the E. coli population after analog addition” value in the experiment with E. coli W3110 pCT6 worked out at 0.7%. In addition, in the experiment on V. harveyi BB170, the “decrease of bioluminescence in V. harveyi” value is given as 33%. The average biofilm thickness in experiment [2] (40 μM isobutyl-DPD combined with gentamicin 5 μg/ml) came out at 6 μm. Further, in experiment [2] (setting [3]), the average biofilm thickness was found to be 2 μm; the “effect on biofilm biomass, in words” value is on record as “nearly complete removal of biomass”; the “reduction in biofilm thickness” value is reported as “more than 80%”. In experiment [2] (isobutyl-DPD combined with gentamicin, continuous optical density measurement), the “course of biofilm optical density after 48 h, in words” value was “reversed biofilm growth”. Moreover, in the experiment with S. typhimurium, the “bacterial species affected: S. typhimurium” value was “x”. For the same molecule, the “decrease of S. typhimurium β-galactosidase activity” value in the experiment with S. typhimurium MET708 is recorded as 4 fold.
